Key:
P. aeruginosa 1405 = experiment: MIC determination in Muller Hinton Agar (CLSI); format: cell-based, Pseudomonas aeruginosa;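 also: MIC read as lowest concentration giving complete growth inhibition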
Method: (§1) The antibacterial activity of combinations according to the invention against resistant bacterial strains was investigated. Minimum Inhibitory Concentration (MIC) determination for the combinations according to invention was carried out in Muller Hinton Agar (MHA) (BD, USA) according to Clinical and Laboratory Standards Institute (CLSI) recommendations, (Clinical and Laboratory Standards Institute (CLSI), Performance Standards for Antimicrobial Susceptibility Testing, 20th Informational Supplement, M 100-S20, Volume 30, No. 1, 2010). In short, the test strains were adjusted to deliver about 10^4 CFU per spot with a multipoint inoculator (Applied Quality Services, UK). The plates were pored with MHA containing doubling concentration range of the test combinations according to invention. The plates were inoculated and were incubated at 35° C. for 18 hours.

P. aeruginosa 2779 = experiment: MIC determination in Muller Hinton Agar (CLSI); format: cell-based, Pseudomonas aeruginosa;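 also: MIC read as lowest concentration giving complete growth inhibition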
Method: as §1

P. aeruginosa J 154 = experiment: MIC determination in Muller Hinton Agar (CLSI); format: cell-based, Pseudomonas aeruginosa;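 as to MIC (mcg/ml) of carbapenem in presence of [A] at 4 mcg/ml: MIC read as lowest concentration giving complete growth inhibition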;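 as to MIC (mcg/ml) of carbapenem in presence of [B] at 4 mcg/ml: MIC read as lowest concentration giving complete growth inhibition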
Method: as §1

P. aeruginosa R 70 = experiment: MIC determination in Muller Hinton Agar (CLSI); format: cell-based, Pseudomonas aeruginosa
Method: as §1

[1] = test system: Pseudomonas aeruginosa 1405; experiment: Time kill study; format: cell-based; conditions: P. aeruginosa 1405; for Bacterial count (Log10 CFU/ml) 0 hour / Bacterial count (Log10 CFU/ml) 2 hour / Bacterial count (Log10 CFU/ml) 4 hour / Bacterial count (Log10 CFU/ml) 6 hour: single agent 4 mcg/ml
Method: (§2) The synergistic killing effect of the combinations according to invention was studied by performing time kill studies. In a typical time kill study, the freshly grown cultures were diluted to the required cell density (initial starting inoculum) in Cation adjusted Muller Hinton broth medium (BD, USA). The antibacterial agents (either alone or in combination) at the required concentrations were added into the culture-containing medium. The samples were incubated under shaking condition (120 rpm) at 37° C. Enumeration of viable bacterial count was done every 2 hour by diluting in normal saline and plating on to the Tryptic Soya Agar plates (BD, USA). The plates were incubated for 24 hours to arrive at the viable bacterial count. The results are expressed in terms of Log10 CFU per ml. In general, the decrease of 1 Log10 CFU/ml, corresponds to 90% killing of bacteria.

[2] = test system: Pseudomonas aeruginosa R70; experiment: Time kill study; format: cell-based; conditions: P. aeruginosa R70
Method: as §2

[3] = test system: highly resistant strains of Pseudomonas aeruginosa; experiment: MIC determination, all strains; format: cell-based; conditions: highly resistant strains of P. aeruginosa
Method: as §1
The results on antibacterial activity of a carbapenem antibacterial agent selected from imipenem, meropenem, ertapenem and doripenem alone and in combination with Compound A or Compound B, against highly resistant strains of Pseudomonas aeruginosa are given in Table 1. […] For example, P. aeruginosa 2779 harbors resistance due to increased AmpC expression (300 times) and increased efflux; P. aeruginosa 1405 harbors resistance due to increased AmpC expression (600 times), reduced OprD expression and increased efflux; P. aeruginosa R 70 harbors resistance due to reduced OprD expression and increased efflux; and P. aeruginosa J 154 harbors resistance due to reduced OprD.

[4] = in presence of Compound A at 4 mcg/ml
[5] = in presence of Compound B at 4 mcg/ml

For C[C@@H](O)[C@H]1C(=O)N2C(C(=O)O)=C(S[C@@H]3CN[C@H](C(=O)N(C)C)C3)[C@H](C)[C@H]12 [Meropenem, meropenem], the “MIC (mcg/ml) of carbapenem in presence of [A] at 4 mcg/ml” value (shortened to “MIC (mcg/ml) … [A] at 4 mcg/ml”) (P. aeruginosa 1405; [4]) was 4 µg/mL, the “MIC (mcg/ml) of carbapenem in presence of [B] at 4 mcg/ml” value (from here on “MIC (mcg/ml) … [B] at 4 mcg/ml”) (P. aeruginosa 1405; [5]) was 0.12 µg/mL and the “MIC (mcg/ml) … [A] at 4 mcg/ml” value (P. aeruginosa 2779; [4]) was 0.12 µg/mL. The “MIC (mcg/ml) … [B] at 4 mcg/ml” value (P. aeruginosa 2779; [5]) was 0.12 µg/mL, the MIC (P. aeruginosa J 154; Pseudomonas aeruginosa, J154, agent alone, P. aeruginosa J 154 [Reduced OprD]) was 16 µg/mL and the “MIC (mcg/ml) … [A] at 4 mcg/ml” value (P. aeruginosa J 154; in presence of Compound A at 4 mcg/ml, P. aeruginosa J 154) was 8 µg/mL. The “MIC (mcg/ml) … [B] at 4 mcg/ml” value (P. aeruginosa J 154; in presence of Compound B at 4 mcg/ml, P. aeruginosa J 154) was less than 0.25 µg/mL, the MIC (P. aeruginosa R 70; Pseudomonas aeruginosa, R70, 18 h, agent alone, P. aeruginosa R 70 [Reduced OprD + increased efflux]) was greater than 32 µg/mL and the “MIC (mcg/ml) … [A] at 4 mcg/ml” value (P. aeruginosa R 70; in presence of Compound A at 4 mcg/ml, P. aeruginosa R 70) was 16 µg/mL. The “MIC (mcg/ml) … [B] at 4 mcg/ml” value (P. aeruginosa R 70; in presence of Compound B at 4 mcg/ml, P. aeruginosa R 70) was no more than 0.12 µg/mL, the “effect on bacterial counts through out the duration of the study (in words)” value ([1]; when used alone) was “failed to reduce the bacterial counts” and the “Bacterial count (Log10 CFU/ml) 0 hour” value ([1]; Table 2) was 6.84 Log10 CFU/ml. For the same compound, the “Bacterial count (Log10 CFU/ml) 2 hour” value ([1]; Table 2) was 5.95 Log10 CFU/ml, the “Bacterial count (Log10 CFU/ml) 4 hour” value ([1]; Table 2) was 6.89 Log10 CFU/ml and the “Bacterial count (Log10 CFU/ml) 6 hour” value ([1]; Table 2) was 7.02 Log10 CFU/ml. The “Bacterial count (Log10 CFU/ml) 0 hour” value ([1]; Table 3) was 6.81 Log10 CFU/ml, the “Bacterial count (Log10 CFU/ml) 2 hour” value ([1]; Table 3) was 6.8 Log10 CFU/ml and the “Bacterial count (Log10 CFU/ml) 4 hour” value ([1]; Table 3) was 7.0 Log10 CFU/ml. For the same compound, the “Bacterial count (Log10 CFU/ml) 6 hour” value ([1]; Table 3) was 7.3 Log10 CFU/ml, the “effect on bacterial counts through out the duration of the study (in words)” value ([2]; when used alone) was “failed to reduce the bacterial counts” and the “Bacterial count (Log10 CFU/ml) 0 hour” value ([2]; Table 4, single agent 4 mcg/ml) was 6.62 Log10 CFU/ml. The “Bacterial count (Log10 CFU/ml) 2 hour” value ([2]; Table 4, single agent 4 mcg/ml) was 7.07 Log10 CFU/ml, the “Bacterial count (Log10 CFU/ml) 4 hour” value ([2]; Table 4, single agent 4 mcg/ml, 4 hour) was 6.84 Log10 CFU/ml and the “Bacterial count (Log10 CFU/ml) 6 hour” value ([2]; Table 4, single agent 4 mcg/ml) was 8.36 Log10 CFU/ml. For the same compound, the “Bacterial count (Log10 CFU/ml) 0 hour” value ([2]; Table 5, single agent 4 mcg/ml) was 6.44 Log10 CFU/ml, the “Bacterial count (Log10 CFU/ml) 2 hour” value ([2]; Table 5, single agent 4 mcg/ml) was 6.14 Log10 CFU/ml and the “Bacterial count (Log10 CFU/ml) 4 hours” value ([2]; Table 5, single agent 4 mcg/ml, 4 hours) was 7.07 Log10 CFU/ml. For the same compound, the “Bacterial count (Log10 CFU/ml) 6 hour” value ([2]; Table 5, single agent 4 mcg/ml) was 7.3 Log10 CFU/ml, the “MIC values (in words)” value ([3]; in presence of Compound A or Compound B) was “decreased significantly” and the “MIC values (in words)” value ([3]; when used alone) was “higher MIC values”.
